# From patent US20090053168A1, “TREATMENTS OF B-CELL PROLIFERATIVE DISORDERS” (priority 2007, published 2009)
# Several values for one entry are separate records, joined by “and”; a condition that tells them apart may be missing. Identical values can stand only once. Like-named read-outs stand apart in the source and are kept apart here.
# Legend:
# [1] = system: ANBL-6 cells; assay: Anti-proliferation assay (ATPLite, 72 h), ANBL-6; type: cell-based; details: in combination with CGS-21680
# [2] = system: chronic lymphocytic leukemia (CLL) cells; assay: Apoptosis assay (Hoechst 33342 flow cytometry, 48 h) on patient CLL cells; type: cell-based, human
# Text: Patients with active infections or other serious medical conditions were not included in this study. Patients with white blood cell counts of less than 15,000/μl by automated analysis were excluded from this study. Whole blood was layered on Ficoll-Hystopaque (Sigma), and peripheral blood mononuclear cells (PBMC) isolated after centrification. […] One million cells were stained with anti-CD5-PE and anti-CD19-PE-Cy5 (Becton […].). The percentage of B-CLL cells was defined as the percentage of cells doubly expressing CD5 and CD19, as determined by flow cytometry. […] Compound master plates were diluted 1:50 into complete media to create working compound dilutions. Compound crosses were then created by diluting two working dilution plates 1:10 into each plate of cells. […] Hoechst 33342 (Molecular Probes, Eugene Oreg.) at a final concentration of 0.25 μg/mL was added to each well and the cells incubated at 37° C. for an additional ten minutes before being placed on ice until analysis. Plates were then analyzed on a LSR-II flow cytometer (Becton Dickenson, Franklin Lakes, N.J.) equipped with the High Throughput Sampling (HTS) option in high throughput mode. […] The apoptotic fraction was calculated using FlowJo software (Tree Star Inc., Ashland, Oreg.) after excluding debris by a FSC/SSC gate and subsequently gating for cells that accumulate the Hoechst dye.
# [3] = system: MM.1R cells; assay: Anti-proliferation assay (ATPLite, 72 h), MM.1R; type: cell-based; details: in combination with ADAC; MM.1R
# [4] = system: H929 cells; assay: Anti-proliferation assay (ATPLite, 72 h), H929; type: cell-based
# [5] = system: MM.1S cells
# [6] = system: MM.1S cells; assay: Anti-proliferation assay (ATPLite, 72 h), MM.1S
# [7] = system: OPM2 cells; assay: Anti-proliferation assay (ATPLite, 72 h), OPM2; type: cell-based, human; details: in combination with CGS-21680; OPM-8
# [8] = system: SU-DHL6 DLBCL cells; assay: Anti-proliferation assay (ATPLite, 72 h), SU-DHL6; type: cell-based; details: in combination with CGS-21680
# [9] = system: EJM cells; assay: Anti-proliferation assay (ATPLite, 72 h), EJM; type: cell-based
# [10] = system: OCI-ly10 DLBCL cells; assay: Anti-proliferation assay (ATPLite, 72 h), OCI-ly10; type: cell-based; details: in combination with CGS-21680
# [11] = system: RPMI-8226 cells; assay: Anti-proliferation assay (ATPLite, 72 h), RPMI-8226; type: cell-based; details: in combination with ADAC; RPMI-8226
# [12] = system: KSM-12-PE cells; assay: Anti-proliferation assay (ATPLite, 72 h), KSM-12-PE; type: cell-based
# [13] = system: MOLP-8 cells; assay: Anti-proliferation assay (ATPLite, 72 h), MOLP-8; type: cell-based; details: in combination with CGS-21680
# [14] = system: Karpas 422 DLBCL cells; assay: Anti-proliferation assay (ATPLite, 72 h), Karpas 422; type: cell-based; details: in combination with CGS-21680
# [15] = system: mantle cell lymphoma cell line JVM-13; assay: Anti-proliferation assay (ATPLite, 72 h), JVM-13; type: cell-based, human; details: in combination with HE-NECA; JVM-13
# Description: (§1) All of the cell lines were cultured in RPMI-1640 media supplemented with 10% FBS except OCI Ly10 cells (IMDM media supplemented with 20% human serum). The ANBL-6 cell line culture media also contained 10 ng/ml IL-6. MM.1S, MM.1R, SU-DHL6, Karpas 422, and OCI ly10 cells were provided by the Dana Farber Cancer Institute. ANBL-6 cells were provided by Bob Orlowsli (M.D. Anderson Cancer Research Center). H929, RPMI-8226, GA-10, Farage, Mino, JVM-13, Pfeiffer, Toledo, and Kusami-1 cells were from ATCC (Cat #'s CCL-155, CRL-9068, CRL-2392 CRL-2630, CRL-3000, CRL-3003, CRL-2632, CRL-2631, and CRL-2724 respectively). MOLP-8, OPM2, EJM, and KSM-12-PE cells were from DSMZ.
# (§2) Compounds were prepared in DMSO at 1000× the highest desired concentration. Master plates were generated consisting of serially diluted compounds in 2- or 3-fold dilutions in 384-well format. For single agent dose response curves, the master plates consisted of 9 individual compounds at 12 concentrations in 2- or 3-fold dilutions. For combination matrices, master plates consisted of individual compounds at 6 or 9 concentrations at 2- or 3-fold dilutions.
# (§3) The average untreated well value (avg. untreated wells) is the arithmetic mean of 40 wells from the same assay plate treated with vehicle alone. Negative inhibition values result from local variations in treated wells as compared to untreated wells.
# (§4) The uncertainty of each fitted parameter was estimated from the range over which the change in reduced chi-squared was less than one, or less than minimum reduced chi-squared if that minimum exceeded one, to allow for underestimated σI errors.
# (§5) Single agent curve data were used to define a dilution series for each compound to, be used for combination screening in a 6×6 matrix format. […] For compounds with no detectable single agent activity, a dilution factor of 4 was used, starting from the highest achievable concentration.
# (§6) The Loewe additivity model was used to quantify combination effects. Combinations were ranked initially by Additivity Excess Volume, which is defined as ADD Volume=ΣCX, CY(Idata−ILoewe). where ILoewe(CX,CY) is the inhibition that satisfies (CX/ECX)+(CY/ECY)=1, and ECX,Y are the effective concentrations at ILoewe for the single agent curves. A “Synergy Score” was also used, where the Synergy Score S=log fX log fY ΣIdata (Idata−ILoewe), summed over all non-single-agent concentration pairs, and where log fX,Y is the natural logarithm of the dilution factors used for each single agent.
# [16] = system: Pfeiffer (diffuse large B cell lymphoma) cells; assay: Anti-proliferation assay (ATPLite, 72 h), Pfeiffer; type: cell-based; details: in combination with HE-NECA
# Description: as §1, §2
# (§7) The average untreated well value (avg. untreated wells) is the arithmetic mean of 40 wells from the same assay plate treated with vehicle alone. […]
# (§8) The Loewe additivity model was used to quantify combination effects. […]
# [17] = system: Kasumi-1 (acute myelogenous leukemia) cells; assay: Anti-proliferation assay (ATPLite, 72 h), Kasumi-1; type: cell-based; details: in combination with HE-NECA
# Description: as §1, §2, §7, §8
# [18] = system: mantle cell lymphoma cell line Mino; assay: Anti-proliferation assay (ATPLite, 72 h), Mino; type: cell-based, human; details: in combination with HE-NECA; Mino
# Description: as §1, §2, §3, §4, §5, §6
smiles,measurement,setting,value
C[C@@H]1C[C@H]2[C@@H]3CCC4=CC(=O)C=C[C@]4(C)[C@@]3(F)[C@@H](O)C[C@]2(C)[C@@]1(O)C(=O)CO [dexamethasone],synergy score,[1],1.25
same,Induction of CLL cell apoptosis,"[2]; Patient #1, Dexamethasone 1 nM alone",9.3%
same,Induction of CLL cell apoptosis,"[2]; Patient #1, Dexamethasone 10 nM alone",33%
same,Induction of CLL cell apoptosis,"[2]; Patient #1, Dexamethasone 100 nM alone",56%
same,Induction of CLL cell apoptosis,"[2]; Patient #2, Dexamethasone 8.4 nM alone",8.4%
same,Induction of CLL cell apoptosis,"[2]; Patient #2, Dexamethasone 11 nM alone",11%
same,Induction of CLL cell apoptosis,"[2]; Patient #2, Dexamethasone 36 nM alone",36%
same,Induction of CLL cell apoptosis,"[2]; Patient #2, Dexamethasone 50 nM alone",50%
same,"apoptosis, CLL cells patient 1","[2]; patient 1, 48 hours",33%
same,"apoptosis, CLL cells patient #2","[2]; patient #2, 48 hours",27%
same,synergy score,[3],0.33
same,synergy score,"[4]; in combination with ADAC, H929",7.09
same,inhibition,[5],47% and 36% and 60% and 48%
same,percent inhibition of cell proliferation,"[6]; DEX 0.0462 nM, Cl-IB-MECA 0 nM, MM.1S, 72 h",12%
same,percent inhibition of cell proliferation,"[6]; DEX 0.139 nM alone, listed as DEX",1.8% and 10%
same,percent inhibition of cell proliferation,"[6]; DEX 0.139 nM, Cl-IB-MECA 0 nM, MM.1S, 72 h",0.78%
same,percent inhibition of cell proliferation,[6]; DEX 0.416 nM alone,8.3%
same,percent inhibition of cell proliferation,"[6]; DEX 1.85 nM alone, listed as DEX",14% and 27%
same,percent inhibition of cell proliferation,"[6]; DEX 1.85 nM, CCPA 0 μM, MM.1S, 72 h",13%
same,percent inhibition of cell proliferation,[6]; DEX 3.74 nM alone,32%
same,percent inhibition of cell proliferation,"[6]; DEX 3.74 nM, Cl-IB-MECA 0 nM, MM.1S, 72 h",22%
same,percent inhibition of cell proliferation,"[6]; DEX 5.56 nM alone, listed as DEX",20% and 30% and 33%
same,percent inhibition of cell proliferation,"[6]; DEX 5.56 nM, CCPA 0 μM, MM.1S, 72 h",36%
same,percent inhibition of cell proliferation,"[6]; DEX 11.2 nM alone, listed as DEX",28% and 54%
same,percent inhibition of cell proliferation,"[6]; DEX 11.2 nM, Cl-IB-MECA 0 nM, MM.1S, 72 h",29%
same,percent inhibition of cell proliferation,"[6]; DEX 33.7 nM alone, listed as DEX",48% and 64%
same,percent inhibition of cell proliferation,"[6]; DEX 33.7 nM, Cl-IB-MECA 0 nM, MM.1S, 72 h",56%
same,percent inhibition of cell proliferation,[6]; DEX 0.0378 μM alone,61%
same,percent inhibition of cell proliferation,"[6]; DEX 50 nM alone, listed as DEX",55% and 79% and 70%
same,percent inhibition of cell proliferation,"[6]; DEX 50 nM, CCPA 0 μM, MM.1S, 72 h",72%
same,percent inhibition of cell proliferation,"[6]; DEX 101 nM alone, listed as DEX",64% and 68%
same,percent inhibition of cell proliferation,"[6]; DEX 101 nM, Cl-IB-MECA 0 nM, MM.1S, 72 h",67%
same,percent inhibition of cell proliferation,[6]; DEX 0.113 μM alone,76%
same,percent inhibition of cell proliferation,"[6]; DEX 150 nM alone, listed as DEX",73% and 87% and 80%
same,percent inhibition of cell proliferation,"[6]; DEX 150 nM, CCPA 0 μM, MM.1S, 72 h",76%
same,percent inhibition of cell proliferation,[6]; DEX 303 nM alone,70%
same,percent inhibition of cell proliferation,[6]; DEX 0.34 μM alone,78%
same,percent inhibition of cell proliferation,[6]; DEX 1.02 μM alone,82%
same,percent inhibition of cell proliferation,[6]; DEX 0.0462. nM alone,−2.5%
same,percent inhibition of cell proliferation,[6]; DEX 0.4.16 nM alone,−5.2%
same,percent inhibition of cell proliferation,"[6]; DEX 0.4.16 nM, Cl-IB-MECA 0 nM, MM.1S, 72 h",4.5%
same,percent inhibition of cell proliferation,[6]; DEX 3.74. nM alone,18%
same,percent inhibition of cell proliferation,"[6]; DEX […], Cl-IB-MECA 0 nM, MM.1S, 72 h",9.7%
same,change in IC50 when cultured in the presence of IL-6,"[6]; MM.1S, 72 hours, 10 ng/ml IL-6 vs no IL-6",2.9 fold
same,synergy score,"[6]; in combination with ADAC, MM.1S",1.98
same,synergy score,"[6]; in combination with CGS-21680, MM.1S",8.06
same,synergy score,[7],2.85
same,synergy score,[8],4.85
same,synergy score,[9]; in combination with CGS-21680,5.32
same,synergy score,[10],4.21
same,synergy score,[11],4.71
same,synergy score,"[12]; in combination with CGS-21680, KSM-12-PE",1.27
same,synergy score,[13],4.86
same,synergy score,[14],4.32
COC1=C2C[C@@H](C)C[C@H](OC)[C@H](O)[C@@H](C)/C=C(\C)[C@H](OC(N)=O)[C@@H](OC)/C=C\C=C(/C)C(=O)NC(=CC1=O)C2=O [geldanomycin],synergy score,[15],1.84
same,synergy score,[16],2.1
same,synergy score,[4],1.82
same,synergy score,[6],2.2
same,synergy score,[9]; in combination with HE-NECA,1.48
same,synergy score,[17],2.47
same,synergy score,"[12]; in combination with HE-NECA, KSM-12_PE",1.37
same,synergy score,[18],1.27
